According to patent US10457707B2, “Substituted urea depsipeptide analogs as activators of the CLPP endopeptidase” (priority 2015, dated 2019):
Values after ≈ are worked out from the molar mass of the structure shown. Read-outs that look alike come from different tables or passages of the source. *1 amine or outer side, *2 acyl side, *3 side chain or, on linkers, in order; H or OH if unused. Where a SMILES comes first, the peptide text is derived from it. Bridges are numbered along the chain shown (N, C = ends). [ ]: non-standard residue; d: D form. The star is where a group is joined. Phe(3,5-F2) = N[C@@H](Cc1cc(F)cc(F)c1)C(=O)O; NH(4-OCF3-phenyl) = FC(F)(F)Oc1ccc(N*)cc1; Morpholine(3S-CO) = O=C(O)[C@@H]1COCCN1; Pro(4S-Me) = C[C@@H]1CN[C@H](C(=O)O)C1; Pro(4R-Me) = C[C@H]1CN[C@H](C(=O)O)C1; NMeaThr = CN[C@H](C(=O)O)[C@H](C)O; NH(4-Et-phenyl) = CCc1ccc(N*)cc1; NMeT = CN[C@H](C(=O)O)[C@@H](C)O; NH(4-Me-phenyl) = Cc1ccc(N*)cc1; aThr = C[C@H](O)[C@H](N)C(=O)O; CO = O=C([*:1])[*:2]

Assays:
Assay type in all cases: cell-based
[1] = system: Staphylococcus aureus, NRS70; test: Minimal inhibitory concentration assay (microbroth dilution)
Procedure, shortened: (§1)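 Antibacterial activity was measured by CLSI-standard microdilution in broth, using overnight aerobic incubation at 37 °C. Growth inhibition was scored visually, and MIC taken as the lowest concentration preventing growth.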

[2] = system: Bacillus subtilis, ATCC 23857; test: as above
Procedure, shortened: as §1

[3] = system: Staphylococcus aureus, ATCC 29213; test: as above; conditions: ATCC29213, read-out: Minimal Inhibitory Concentrations S. aureus ATCC 29213
Procedure, shortened: as §1

[4] = Cytotoxicity assay (CellTiter-Glo cell viability, 72 hours); conditions: African green monkey
Procedure, shortened: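 Vero cells, 5000/well, grown overnight at 37° C, 5% CO2 in DMEM with 10% FBS, then exposed to serial compound dilutions or DMSO for 72 hours. Viability read by CellTiter-Glo luminescence. IC50 from duplicate wells, reported as range over two independent experiments.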

[5] = system: Streptococcus pyogenes, ATCC 700294; test: Minimal inhibitory concentration assay (microbroth dilution)
Procedure, shortened: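 CLSI broth microdilution: two-fold serial compound dilutions in appropriate broth, inoculated and incubated aerobically overnight at 37° C. MIC read visually as lowest concentration preventing bacterial growth.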

[6] = Staphylococcus aureus, NRS70; read-out: Minimal Inhibitory Concentrations S. aureus NRS70
[7] = Bacillus subtilis, ATCC23857; read-out: Minimal Inhibitory Concentrations B. subtilis ATCC 23857
[8] = Streptococcus pyogenes, ATCC700294; read-out: Minimal Inhibitory Concentrations S. pyogenes ATCC 700294
[9] = Staphylococcus aureus, NRS70, read-out: Minimal Inhibitory Concentrations S. aureus NRS70
[10] = Bacillus subtilis, ATCC23857, read-out: Minimal Inhibitory Concentrations B. subtilis ATCC 23857
[11] = Vero cells, 72 hours, growth inhibition, read-out: Cytotoxicity IC50
[12] = Streptococcus pyogenes, ATCC700294, read-out: Minimal Inhibitory Concentrations S. pyogenes ATCC 700294

SMILES | MIC [1, 6] | MIC [2, 7] | MIC [3] | IC50 at 72 h [4] | MIC [5, 8] | MIC [1, 9] | MIC [2, 10] | IC50 at 72 h [4, 11] | MIC [5, 12]
CCc1ccc(NC(=O)N[C@@H](Cc2cc(F)cc(F)c2)C(=O)N[C@@H]2C(=O)N3CCC[C@H]3C(=O)N(C)[C@@H]([C@H](C)O)C(=O)N[C@@H](C)C(=O)N3C[C@@H](C)C[C@H]3C(=O)O[C@H]2C)cc1 [Compound 204, (S)-3-(3,5-difluorophenyl)-2-(3-(4-ethylphenyl)ureido)-N-((2S,6S,9S,11aS,17S,18S,20aS)-9-((S)-1-hydroxyethyl)-2,6,10,18-tetramethyl-5,8,11,16,20-pentaoxohexadecahydro-1H,5H,16H-dipyrrolo[2,1-c:2′,1′-l][1]oxa[4,7,10,13]tetraazacyclohexadecin-17-yl)propanamide] ({NH(4-Et-phenyl)-CO}-[Phe(3,5-F2)][aThr]P[NMeaThr]A[Pro(4S-Me)]; ester 2-C) | 0.098 µM (≈ 0.0809 µg/mL) | 0.049 µM (≈ 0.0405 µg/mL) | 0.098 µM (≈ 0.0809 µg/mL) | 33.8 ± 1.6 µM | 0.098 µM (≈ 0.0809 µg/mL) | – | – | – | –
C[C@H]1C[C@H]2C(=O)O[C@@H](C)[C@H](NC(=O)[C@H](Cc3cc(F)cc(F)c3)NC(=O)Nc3ccc(OC(F)(F)F)cc3)C(=O)N3CCC[C@H]3C(=O)N(C)[C@@H]([C@@H](C)O)C(=O)N[C@@H](C)C(=O)N2C1 [Compound 36, (S)-3-(3,5-difluorophenyl)-N-((2S,6S,9S,11aS,17S,18S,20aS)-9-((R)-1-hydroxyethyl)-2,6,10,18-tetramethyl-5,8,11,16,20-pentaoxohexadecahydro-1H,5H,16H-dipyrrolo[2,1-c:2′,1′-l][1]oxa[4,7,10,13]tetraazacyclohexadecin-17-yl)-2-(3-(4-(trifluoromethoxy)phenyl)ureido)propanamide] ({NH(4-OCF3-phenyl)-CO}-[Phe(3,5-F2)][aThr]P[NMeT]A[Pro(4S-Me)]; ester 2-C) | 0.05 µM (≈ 0.0441 µg/mL) | 0.1 µM (≈ 0.0882 µg/mL) | 0.1 µM (≈ 0.0882 µg/mL) | 25.4 ± 1.8 µM | 0.2 µM (≈ 0.176 µg/mL) | – | – | – | –
Cc1ccc(NC(=O)N[C@@H](Cc2cc(F)cc(F)c2)C(=O)N[C@@H]2C(=O)N3CCC[C@H]3C(=O)N(C)[C@@H]([C@@H](C)O)C(=O)N[C@@H](C)C(=O)N3C[C@@H](C)C[C@H]3C(=O)O[C@H]2C)cc1 [Compound 35, (S)-3-(3,5-difluorophenyl)-N-((2S,6S,9S,11aS,17S,18S,20aS)-9-((R)-1-hydroxyethyl)-2,6,10,18-tetramethyl-5,8,11,16,20-pentaoxohexadecahydro-1H,5H,16H-dipyrrolo[2,1-c:2′,1′-l][1]oxa[4,7,10,13]tetraazacyclohexadecin-17-yl)-2-(3-(p-tolyl)ureido)propanamide] ({NH(4-Me-phenyl)-CO}-[Phe(3,5-F2)][aThr]P[NMeT]A[Pro(4S-Me)]; ester 2-C) | – | – | 0.2 µM (≈ 0.162 µg/mL) | – | – | 0.1 µM (≈ 0.0812 µg/mL) | 0.2 µM (≈ 0.162 µg/mL) | 55.7 ± 3.6 µM | 0.39 µM (≈ 0.317 µg/mL)
Cc1ccc(NC(=O)N[C@@H](Cc2cc(F)cc(F)c2)C(=O)N[C@@H]2C(=O)N3CCC[C@H]3C(=O)N3CCOC[C@H]3C(=O)N[C@@H](C)C(=O)N3C[C@H](C)C[C@H]3C(=O)O[C@H]2C)cc1 [Compound 210, (S)-3-(3,5-difluorophenyl)-2-(3-(p-tolyl)ureido)-N-((6aS,12S,13S,15aS,17R,21S,23aS)-13,17,21-trimethyl-6,11,15,20,23-pentaoxooctadecahydro-6H,11H,15H-[1,4]oxazino[3,4-i]dipyrrolo[2,1-c:2′,1′-l][1]oxa[4,7,10,13]tetraazacyclohexadecin-12-yl)propanamide] ({NH(4-Me-phenyl)-CO}-[Phe(3,5-F2)][aThr]P[Morpholine(3S-CO)]A[Pro(4R-Me)]; ester 2-C) | – | – | 0.003 µM (≈ 0.00243 µg/mL) | – | – | 0.0002 µM (≈ 0.000162 µg/mL) | 0.02 µM (≈ 0.0162 µg/mL) | 5.82 ± 0.39 µM | 0.02 µM (≈ 0.0162 µg/mL)
C[C@@H]1C[C@H]2C(=O)O[C@@H](C)[C@H](NC(=O)[C@H](Cc3cc(F)cc(F)c3)NC(=O)Nc3ccc(OC(F)(F)F)cc3)C(=O)N3CCC[C@H]3C(=O)N(C)[C@@H]([C@@H](C)O)C(=O)N[C@@H](C)C(=O)N2C1 [Compound 41, (S)-3-(3,5-difluorophenyl)-N-((2R,6S,9S,11aS,17S,18S,20aS)-9-((R)-1-hydroxyethyl)-2,6,10,18-tetramethyl-5,8,11,16,20-pentaoxohexadecahydro-1H,5H,16H-dipyrrolo[2,1-c:2′,1′-l][1]oxa[4,7,10,13]tetraazacyclohexadecin-17-yl)-2-(3-(4-(trifluoromethoxy)phenyl)ureido)propanamide] ({NH(4-OCF3-phenyl)-CO}-[Phe(3,5-F2)][aThr]P[NMeT]A[Pro(4R-Me)]; ester 2-C) | 0.01 µM (≈ 0.00882 µg/mL) | 0.01 µM (≈ 0.00882 µg/mL) | 0.02 µM (≈ 0.0176 µg/mL) | 23.9 ± 2 µM | 0.1 µM (≈ 0.0882 µg/mL) | – | – | – | –
C[C@H]1C[C@H]2C(=O)O[C@@H](C)[C@H](NC(=O)[C@H](Cc3cc(F)cc(F)c3)NC(=O)Nc3ccc(OC(F)(F)F)cc3)C(=O)N3CCC[C@H]3C(=O)N3CCOC[C@H]3C(=O)N[C@@H](C)C(=O)N2C1 [Compound 201, (S)-3-(3,5-difluorophenyl)-2-(3-(4-(trifluoromethoxy)phenyl)ureido)-N-((6aS,12S,13S,15aS,17S,21S,23aS)-13,17,21-trimethyl-6,11,15,20,23-pentaoxooctadecahydro-6H,11H,15H-[1,4]oxazino[3,4-i]dipyrrolo[2,1-c:2′,1′-l][1]oxa[4,7,10,13]tetraazacyclohexadecin-12-yl)propanamide] ({NH(4-OCF3-phenyl)-CO}-[Phe(3,5-F2)][aThr]P[Morpholine(3S-CO)]A[Pro(4S-Me)]; ester 2-C) | 0.024 µM (≈ 0.0211 µg/mL) | 0.024 µM (≈ 0.0211 µg/mL) | 0.049 µM (≈ 0.0431 µg/mL) | 26 ± 2.6 µM | 0.098 µM (≈ 0.0862 µg/mL) | – | – | – | –
